Patent US20070049564A1 (Wyeth, priority 2005, published 2007)
Values after ≈ are worked out from the molar mass of the structure shown. Read-outs that look alike come from different tables or passages of the source.

Assays:
E. coli GC 2236 = test: MIC, broth microdilution; settings: Escherichia coli
E. coli GC 2231 = test: MIC, broth microdilution; settings: Escherichia coli
E. coli GC 2232 = test: MIC, broth microdilution; settings: Escherichia coli
E. coli GC 2233 = test: MIC, broth microdilution; settings: Escherichia coli
E. coli GC 2234 = test: MIC, broth microdilution; settings: Escherichia coli
E. coli GC 2270 = test: MIC, broth microdilution; settings: Escherichia coli
E. coli GC 2271 = test: MIC, broth microdilution; settings: Escherichia coli
E. coli GC 3226 = test: MIC, broth microdilution; settings: Escherichia coli
E. coli GC 2203 = test: MIC, broth microdilution; settings: Escherichia coli
P. aeruginosa GC 2214 = test: MIC, broth microdilution; settings: Pseudomonas aeruginosa
S. aureus GC 6466 = test: MIC, broth microdilution; settings: Staphylococcus aureus
S. aureus GC 2216 = test: MIC, broth microdilution; settings: Staphylococcus aureus
S. aureus GC 6335 = test: MIC, broth microdilution; settings: Staphylococcus aureus
S. aureus GC 6469 = test: MIC, broth microdilution; settings: Staphylococcus aureus
E. faecalis GC 2265 = test: MIC, broth microdilution; settings: Enterococcus faecalis
E. faecium GC 4556 = test: MIC, broth microdilution; settings: Enterococcus faecium
E. faecium GC 2243 = test: MIC, broth microdilution; settings: Enterococcus faecium
S. pyogenes GC 4563 = test: MIC, broth microdilution; settings: Streptococcus pyogenes
E. coli = test: Range of MIC for E. coli strains; settings: Escherichia coli
Staph. = test: Range of MIC for Staph. strains, including MRSA; settings: Staphylococcus aureus

MIC (E. coli GC 2236; GC2236, read-out: MINIMAL INHIBITORY CONCENTRATION MIC, pre-incubated in Human Serum): > 64 µg/mL
MIC (E. coli GC 2236; GC2236, read-out: MINIMAL INHIBITORY CONCENTRATION MIC, pre-incubated in Mouse Serum): 0.5 µg/mL (≈ 0.61 µM)
MIC (E. coli GC 2236; GC2236, read-out: MINIMAL INHIBITORY CONCENTRATION MIC, pre-incubated in Water): > 64 µg/mL
MIC (E. coli GC 2231; GC2231, read-out: MINIMAL INHIBITORY CONCENTRATION MIC, pre-incubated in Human Serum): > 64 µg/mL
MIC (E. coli GC 2231; GC2231, read-out: MINIMAL INHIBITORY CONCENTRATION MIC, pre-incubated in Mouse Serum): 0.5 µg/mL (≈ 0.61 µM)
MIC (E. coli GC 2231; GC2231, read-out: MINIMAL INHIBITORY CONCENTRATION MIC, pre-incubated in Water): > 64 µg/mL
MIC (E. coli GC 2232; GC2232, read-out: MINIMAL INHIBITORY CONCENTRATION MIC, pre-incubated in Human Serum): > 64 µg/mL
MIC (E. coli GC 2232; GC2232, read-out: MINIMAL INHIBITORY CONCENTRATION MIC, pre-incubated in Mouse Serum): 0.5 µg/mL (≈ 0.61 µM)
MIC (E. coli GC 2232; GC2232, read-out: MINIMAL INHIBITORY CONCENTRATION MIC, pre-incubated in Water): > 64 µg/mL
MIC (E. coli GC 2233; GC2233, read-out: MINIMAL INHIBITORY CONCENTRATION MIC, pre-incubated in Human Serum): > 64 µg/mL
MIC (E. coli GC 2233; GC2233, read-out: MINIMAL INHIBITORY CONCENTRATION MIC, pre-incubated in Mouse Serum): 0.5 µg/mL (≈ 0.61 µM)
MIC (E. coli GC 2233; GC2233, read-out: MINIMAL INHIBITORY CONCENTRATION MIC, pre-incubated in Water): > 64 µg/mL
MIC (E. coli GC 2234; GC2234, read-out: MINIMAL INHIBITORY CONCENTRATION MIC, pre-incubated in Human Serum): > 64 µg/mL
MIC (E. coli GC 2234; GC2234, read-out: MINIMAL INHIBITORY CONCENTRATION MIC, pre-incubated in Mouse Serum): 0.25 µg/mL (≈ 0.305 µM)
MIC (E. coli GC 2234; GC2234, read-out: MINIMAL INHIBITORY CONCENTRATION MIC, pre-incubated in Water): > 64 µg/mL
MIC (E. coli GC 2270; GC2270, read-out: MINIMAL INHIBITORY CONCENTRATION MIC, pre-incubated in Human Serum): > 64 µg/mL
MIC (E. coli GC 2270; GC2270, read-out: MINIMAL INHIBITORY CONCENTRATION MIC, pre-incubated in Mouse Serum): 0.25 µg/mL (≈ 0.305 µM)
MIC (E. coli GC 2270; GC2270, read-out: MINIMAL INHIBITORY CONCENTRATION MIC, pre-incubated in Water): > 64 µg/mL
MIC (E. coli GC 2271; GC2271, read-out: MINIMAL INHIBITORY CONCENTRATION MIC, pre-incubated in Human Serum): > 64 µg/mL
MIC (E. coli GC 2271; GC2271, read-out: MINIMAL INHIBITORY CONCENTRATION MIC, pre-incubated in Mouse Serum): 0.25 µg/mL (≈ 0.305 µM)
MIC (E. coli GC 2271; GC2271, read-out: MINIMAL INHIBITORY CONCENTRATION MIC, pre-incubated in Water): > 64 µg/mL
MIC (E. coli GC 3226; GC3226, read-out: MINIMAL INHIBITORY CONCENTRATION MIC, pre-incubated in Human Serum): > 64 µg/mL
MIC (E. coli GC 3226; GC3226, read-out: MINIMAL INHIBITORY CONCENTRATION MIC, pre-incubated in Mouse Serum): 1 µg/mL (≈ 1.22 µM)
MIC (E. coli GC 3226; GC3226, read-out: MINIMAL INHIBITORY CONCENTRATION MIC, pre-incubated in Water): > 64 µg/mL
MIC (E. coli GC 2203; GC2203, read-out: MINIMAL INHIBITORY CONCENTRATION MIC, pre-incubated in Human Serum): > 64 µg/mL
MIC (E. coli GC 2203; GC2203, read-out: MINIMAL INHIBITORY CONCENTRATION MIC, pre-incubated in Mouse Serum): 0.5 µg/mL (≈ 0.61 µM)
MIC (E. coli GC 2203; GC2203, read-out: MINIMAL INHIBITORY CONCENTRATION MIC, pre-incubated in Water): > 64 µg/mL
MIC (P. aeruginosa GC 2214; GC2214, read-out: MINIMAL INHIBITORY CONCENTRATION MIC, pre-incubated in Human Serum): > 64 µg/mL
MIC (P. aeruginosa GC 2214; GC2214, read-out: MINIMAL INHIBITORY CONCENTRATION MIC, pre-incubated in Mouse Serum): 16 µg/mL (≈ 19.5 µM)
MIC (P. aeruginosa GC 2214; GC2214, read-out: MINIMAL INHIBITORY CONCENTRATION MIC, pre-incubated in Water): > 64 µg/mL
MIC (S. aureus GC 6466; GC6466, read-out: MINIMAL INHIBITORY CONCENTRATION MIC, pre-incubated in Human Serum): 16 µg/mL (≈ 19.5 µM)
MIC (S. aureus GC 6466; GC6466, read-out: MINIMAL INHIBITORY CONCENTRATION MIC, pre-incubated in Mouse Serum): 0.5 µg/mL (≈ 0.61 µM)
MIC (S. aureus GC 6466; GC6466, read-out: MINIMAL INHIBITORY CONCENTRATION MIC, pre-incubated in Water): 64 µg/mL (≈ 78.1 µM)
MIC (S. aureus GC 2216; GC2216, read-out: MINIMAL INHIBITORY CONCENTRATION MIC, pre-incubated in Human Serum): 32 µg/mL (≈ 39 µM)
MIC (S. aureus GC 2216; GC2216, read-out: MINIMAL INHIBITORY CONCENTRATION MIC, pre-incubated in Mouse Serum): 0.5 µg/mL (≈ 0.61 µM)
MIC (S. aureus GC 2216; GC2216, read-out: MINIMAL INHIBITORY CONCENTRATION MIC, pre-incubated in Water): 64 µg/mL (≈ 78.1 µM)
MIC (S. aureus GC 6335; GC6335, read-out: MINIMAL INHIBITORY CONCENTRATION MIC, pre-incubated in Human Serum): 64 µg/mL (≈ 78.1 µM)
MIC (S. aureus GC 6335; GC6335, read-out: MINIMAL INHIBITORY CONCENTRATION MIC, pre-incubated in Mouse Serum): 1 µg/mL (≈ 1.22 µM)
MIC (S. aureus GC 6335; GC6335, read-out: MINIMAL INHIBITORY CONCENTRATION MIC, pre-incubated in Water): 64 µg/mL (≈ 78.1 µM)
MIC (S. aureus GC 6469; GC6469, read-out: MINIMAL INHIBITORY CONCENTRATION MIC, pre-incubated in Human Serum): 32 µg/mL (≈ 39 µM)
MIC (S. aureus GC 6469; GC6469, read-out: MINIMAL INHIBITORY CONCENTRATION MIC, pre-incubated in Mouse Serum): 1 µg/mL (≈ 1.22 µM)
MIC (S. aureus GC 6469; GC6469, read-out: MINIMAL INHIBITORY CONCENTRATION MIC, pre-incubated in Water): > 64 µg/mL
MIC (E. faecalis GC 2265; GC2265, read-out: MINIMAL INHIBITORY CONCENTRATION MIC, pre-incubated in Human Serum): 8 µg/mL (≈ 9.76 µM)
MIC (E. faecalis GC 2265; GC2265, read-out: MINIMAL INHIBITORY CONCENTRATION MIC, pre-incubated in Mouse Serum): 0.5 µg/mL (≈ 0.61 µM)
MIC (E. faecalis GC 2265; GC2265, read-out: MINIMAL INHIBITORY CONCENTRATION MIC, pre-incubated in Water): 32 µg/mL (≈ 39 µM)
MIC (E. faecium GC 4556; GC4556, read-out: MINIMAL INHIBITORY CONCENTRATION MIC, pre-incubated in Human Serum): 8 µg/mL (≈ 9.76 µM)
MIC (E. faecium GC 4556; GC4556, read-out: MINIMAL INHIBITORY CONCENTRATION MIC, pre-incubated in Mouse Serum): 0.5 µg/mL (≈ 0.61 µM)
MIC (E. faecium GC 4556; GC4556, read-out: MINIMAL INHIBITORY CONCENTRATION MIC, pre-incubated in Water): 16 µg/mL (≈ 19.5 µM)
MIC (E. faecium GC 2243; GC2243, read-out: MINIMAL INHIBITORY CONCENTRATION MIC, pre-incubated in Human Serum): 0.25 µg/mL (≈ 0.305 µM)
MIC (E. faecium GC 2243; GC2243, read-out: MINIMAL INHIBITORY CONCENTRATION MIC, pre-incubated in Mouse Serum): 0.12 µg/mL (≈ 0.146 µM)
MIC (E. faecium GC 2243; GC2243, read-out: MINIMAL INHIBITORY CONCENTRATION MIC, pre-incubated in Water): 0.25 µg/mL (≈ 0.305 µM)
MIC (S. pyogenes GC 4563; GC4563, read-out: MINIMAL INHIBITORY CONCENTRATION MIC, pre-incubated in Human Serum): < 0.06 µg/mL
MIC (S. pyogenes GC 4563; GC4563, read-out: MINIMAL INHIBITORY CONCENTRATION MIC, pre-incubated in Mouse Serum): < 0.06 µg/mL
MIC (S. pyogenes GC 4563; GC4563, read-out: MINIMAL INHIBITORY CONCENTRATION MIC, pre-incubated in Water): < 0.06 µg/mL
MIC (E. coli; 20 h, read-out: Range of MIC, E. coli (Mouse Serum)): 0.25 to 2 µg/mL (≈ 0.305 to 2.44 µM)
MIC (E. coli; read-out: Minimum inhibitory concentration (MIC), E. coli (Human Serum)): > 64 µg/mL
MIC (E. coli; read-out: Minimum inhibitory concentration (MIC), E. coli (water)): > 64 µg/mL
MIC (E. coli; read-out: Range of MIC, E. coli (Water)): > 64 µg/mL
MIC (Staph.; MRSA, read-out: Range of MIC, Staph (Mouse Serum)): 0.5 to 2 µg/mL (≈ 0.61 to 2.44 µM)
MIC (Staph.; read-out: Minimum inhibitory concentration (MIC), Staph (Human Serum)): 4 to 64 µg/mL (≈ 4.88 to 78.1 µM)
SMILES: CN(C)c1cc(NC(=O)CN(C(=O)OCOC(=O)c2ccc(C(C)(C)C)cc2)C(C)(C)C)c(O)c2c1C[C@H]1C[C@H]3[C@H](N(C)C)C(O)=C(C(N)=O)C(=O)[C@@]3(O)C(O)=C1C2=O [Example 43, ({[(2-{[(5aR,6aS,7S,10aS)-9-(aminocarbonyl)-4,7-bis(dimethylamino)-1,8,10a,11-tetrahydroxy-10,12-dioxo-5,5a,6,6a,7,10,10a,12-octahydrotetracen-2-yl]amino}-2-oxoethyl)(tert-butyl)amino]carbonyl}oxy)methyl 4-tert-butylbenzoate]
